Measured values as given in patent US20010049372A1, “Antiviral nucleoside analogues” (BioChem Pharma Inc., priority 1998, published 2001).
Read-outs that look alike come from different tables or passages of the source.

How the values were obtained:
105/F (zidovudine^R) = experiment: Drug-resistant clinical isolates in PBMCs (p24); assay type: cell-based, HIV-1; conditions: Human immunodeficiency virus 1, PBMC
Experimental: (§1) ANTIVIRAL ASSAYS. The anti-HIV-1 activity of the compound A (−) were assessed by employing HIV-1IIIB in a variety of cell types as previously described (Gu et al., 1992, 1994, 1999; Rando et al., 1995; Salomon et al., 1994). Briefly, cells were incubated with virus at a multiplicity of infection (MOI) of 0.005 for T cell assays and an MOI of 0.5 for monocytic cell assays for 3 hrs. Unbound virus was then removed by washing the cells, followed by seeding the cells into a 96-well plate. The infected cells were cultured in the presence of a serial concentrations of the test compound for 5-7 days. The anti-HIV-1 efficacy was determined by testing for HIV-1 RT activity or p24 level in the cell culture supernatants. All assays were performed in duplicate. Zidovudine and/or lamivudine were used as controls in each experiment.
(§2) Clinical strains were isolated from PBMCs of HIV-1 infected individuals through co-culture with PBMCs from normal dornors. To determine the RT genotype of the HIV-1 clinical isolates, the proviral DNA was extracted from infected CD4^+ T-cells or PBMCs and the complete RT coding regions were amplified by PCR as previously reported (Gu et al 1992). The PCR product was purified and then directly sequenced using primer RTS (5′-CCAAAAGTTAAACAATGGC-3′) which is located at the 5′ portion of the RT coding region (nucleotide 2603-2621 of HXB2-D coordinates). Antiviral activity was evaluated as described in example 10.

CCR19 (Lamivudine^R) = experiment: Drug-resistant clinical isolates in PBMCs (p24); assay type: cell-based, HIV-1; conditions: Human immunodeficiency virus 1, PBMC
Experimental: as §1, §2

105/A (wt) = experiment: Drug-resistant clinical isolates in PBMCs (p24); assay type: cell-based, HIV-1; conditions: Human immunodeficiency virus 1, PBMC
Experimental: as §1, §2

CCR18 (Lamivudine^R) = experiment: Drug-resistant clinical isolates in PBMCs (p24); assay type: cell-based, HIV-1; conditions: Human immunodeficiency virus 1, PBMC
Experimental: as §1, §2

CCR15 (Lamivudine^R) = experiment: Drug-resistant clinical isolates in PBMCs (p24); assay type: cell-based, HIV-1; conditions: Human immunodeficiency virus 1, PBMC
Experimental: as §1, §2

HIV-1IIIB = experiment: Anti-HIV-1 antiviral assay with HIV-1IIIB in various cell types (RT activity); assay type: cell-based
Experimental: as §1
Activity of the compound A (−) against HIV-1 in various cells. Anti-HIV-1 activity of the compound A (−) were tested in different types of cells, including human peripheral […] cells (PBMCs), T-cell (MT-2 and MT-4) and monocytic cell (U937) lines. The compound A (−) had submicromolar EC50s against HIV-1IIIB in different types of cells tested (Table 2).

[1] = Cellular toxicity by WST-1 staining; assay type: cell-based; conditions: human, CBMCs, Table 4, day 7, read-out: CC50 (μM) WST-1 CBMC
Experimental: (§3) The cellular toxicity of the compounds were assessed on various cells using [^3H]-thymidine uptake. Various cells, including Molt-4, HT1080, DU-145, HepG-2 and HSF, were plated at a concentration of 1-2×10^3 cells per well (96 well plates). After a 24 hr incubation period, 10-fold serial diluted compounds (b 10^−4 M to 10^−10 M) were added to the culture medium and the cells were further incubated for 72 hrs. [^3H]-thymidine was added during the final 18 hr incubation period. After incubation with the [^3H]-thymidine, the cells were washed once with PBS, treated with trypsin if the cells were adherent, and then resuspended in water (hypotonic lysing of cells). The cellular extract was applied directly to a Tomtec Harvester 96. Using this instrument the extracted DNA is adsorbed onto filters, washed and the incorporated [^3H]-thymidine is then counted. The 50% cytotoxic concentration (CC50) was determined by comparing the radioactive counts per minute of the samples in the presence of the compounds against the control. The cellular toxicity of the compounds was also tested by WST-1 staining through assessing proliferation of MT-2, H9, Jurkat, U937, and CBMCs. The established cell lines were cultured in RPMI medium in 96-well plates at a density of 5×10^4 cells/well while CBMCs were plated at a concentration of 0.5×10^6/well. A 10-fold serial diluted (10^−4-10^−7 M) compound was added at day zero. At day 4, the cells were passaged by changing half medium containing appropriately diluted compound. The cell activities were assessed at day 7 using the WST-1 reagent (Boehringer Mannheim) following the protocol provided by the supplier.
In the WST-1 staining experiments, cell lines were cultured in RPMI medium in 96-well plates at a density of 5×10^4 cells/well. CBMCs were plated at a concentration of 0.5×10^6/well. Compounds (10^−4-10^−7 M) were added at day zero. Cell viability was assessed on day 7 using the WST-1 reagent (Boehringer Mannheim) following the protocol provided by the supplier.

[2] = Cellular toxicity by [3H]-thymidine uptake; assay type: cell-based; conditions: human
Experimental: as §3
(§4) Cellular toxicity was assessed by [^3H]thymidine uptake (de Muys et al. 1999) and WST-1 staining. In the [^3H]thymidine uptake experiments, Molt-4, HT1080, DU-145, HepG2 and HSF, were plated at a concentration of 1-2×10^3 cells per well (96 well plates). PHA-stimulated PBMCs were cultured at a concentration of 4×10^4 cells per well. Following a 24 hr pre-incubation period, test compounds (10^−4 M to 10^−10 M) were added and the cells were incubated for an additional 72 hrs. [^3H]thymidine was added during the final 18 hr incubation period. The cells were then washed once with PBS, treated with trypsin if the cells were adherent, and resuspended in water (hypotonic lysing of cells). The cellular extract was applied directly to a Tomtec Harvester 96. The 50% cytotoxic concentration (CC50) was determined by comparing the radioactive counts per minute obtained from drug-tested samples to those obtained from the control (untreated) cells.

PBMCs = experiment: Cellular toxicity by [3H]-thymidine uptake; assay type: cell-based, human; conditions: Table 4; 72 hrs
Experimental: as §4

[3] = Cellular toxicity by [3H]-thymidine uptake; assay type: cell-based, human; conditions: human, Table 14, PHA-stimulated PBMCs, read-out: CC50 (μM) [^3H]TTP incorporation in: PBMC
Experimental: as §4

NNRTI^R = experiment: Recombinant drug resistant HIV-1 variants (RT activity); assay type: cell-based; conditions: Human immunodeficiency virus 1
Experimental: as §1
(§5) Recombinant HIV-1 variants were prepared by introducing the designed mutations into HXB2-D by site-directed mutagenesis as described (Gu et al. 1992, 1994). The virus stocks were prepared by transfecting MT-4 cells with infectious viral DNA constructs. Antiviral activity of the compound A (−) was evaluated as described in example 10.

HXB2-D (wt) = experiment: Recombinant HIV-1 variants (RT activity); assay type: cell-based; conditions: Human immunodeficiency virus 1, HXB2
Experimental: as §1, §5

PI^R = experiment: Recombinant drug resistant HIV-1 variants (RT activity); assay type: cell-based; conditions: Human immunodeficiency virus 1
Experimental: as §1, §5

[4] = Human immunodeficiency virus 1, MT2, HIV-1IIIB, MT-2 cells, determined by RT activity, read-out: EC50 (μM) ± S.D. in MT-2 cells

SMILES | IC50 (105/F (zidovudine^R)) [nM] | IC50 (CCR19 (Lamivudine^R)) [nM] | IC50 (105/A (wt)) [nM] | IC50 (CCR18 (Lamivudine^R)) [nM] | IC50 (CCR15 (Lamivudine^R)) [nM] | EC50 (HIV-1IIIB; [4]) [µM] | also measured
Nc1nc(NC2CC2)c2ncn([C@H]3C=C[C@@H](CO)C3)c2n1 [Abacavir, abacavir] | 70 | 580 | < 30 | 1300 | 220 | 0.1 | 
Nc1ncnc2c1ncn2CCOCP(=O)(O)O [Adefovir, adefovir] | 7000 | 2300 | 2000 | 2100 | 800 |  | 
Cc1cn([C@H]2C=C[C@@H](CO)O2)c(=O)[nH]c1=O [Stavudine, stavudine] | 120 | 50 | 63 | 49 | 60 |  | EC50 (HIV-1IIIB; Human immunodeficiency virus 1, MT2, read-out: EC50 (μM) ± S.D. in MT-2 cells): 0.38 ± 0.26 µM
Nc1ccn([C@H]2CC[C@@H](CO)O2)c(=O)n1 [Zalcitabine, zalcitabine] |  |  |  |  |  | 0.05 | CC50 at 7 days [1]: 29 µM; CC50 at 72 h ([2]; DU-145 cells, Table 4, read-out: CC50 (μM) [^3H-]TTP incorporation in: U-145): 5 µM; CC50 at 72 h ([2]; DU-145 cells, Table 14, read-out: CC50 (μM) [^3H]TTP incorporation in: U145): 3.5 µM; CC50 at 72 h ([2]; HSF cells, Table 14, read-out: CC50 (μM) [^3H]TTP incorporation in: HSF): 2 µM; CC50 at 72 h ([2]; HT1080 cells, Table 4, read-out: CC50 (μM) [^3H-]TTP incorporation in: HT1080): 2 µM; CC50 at 72 h ([2]; HT1080 cells, Table 14, read-out: CC50 (μM) [^3H]TTP incorporation in: HT800): 2.5 µM; CC50 at 72 h ([2]; HepG2 cells, Table 4, read-out: CC50 (μM) [^3H-]TTP incorporation in: HepG2): 7 µM; CC50 at 72 h ([2]; HepG2 cells, Table 14, read-out: CC50 (μM) [^3H]TTP incorporation in: HepG2): 6.5 µM; CC50 at 72 h ([2]; Molt-4 cells, Table 4, read-out: CC50 (μM) [^3H-]TTP incorporation in: Molt-4): 2 µM; CC50 at 72 h ([2]; Molt-4 cells, Table 14, read-out: CC50 (μM) [^3H]TTP incorporation in: Molt4): 1 µM; CC50 (μM) [^3H-]TTP incorporation in: PBMC (PBMCs): 50/15; CC50 at 72 h [3]: 35.5 µM
Cc1ccnc2c1NC(=O)c1cccnc1N2C1CC1 [nevirapine] |  |  |  |  |  |  | EC50 (NNRTI^R): > 10000 nM
CC(C)(C)NC(=O)[C@@H]1C[C@@H]2CCCC[C@@H]2CN1C[C@@H](O)[C@H](Cc1ccccc1)NC(=O)[C@H](CC(N)=O)NC(=O)c1ccc2ccccc2n1 [saquinavir] |  |  |  |  |  |  | EC50 (HXB2-D (wt)): 1.5 nM; EC50 (PI^R): 28 nM
